Measurements from US20090246292A1, “ANTIMICROBIAL FORMULATIONS COMPRISING A QUINONE AND A COPPER SALT” (priority 2006, published 2009).

What was measured:
P. acnes NCTC 737 [1] = assay: Minimum inhibitory concentration (MIC) assay; format: cell-based, Propionibacterium acnes; settings: copper salt alone; P. acnes NCTC 737
Description: (§1) (a) Minimum Inhibitory Concentration (MIC) Assay
(§2) The culture media were as described above.
(§3) The assays included both negative (culture medium with no micro-organisms) and positive (culture medium plus diluting solvent plus micro-organism) controls.

P. acnes NCTC 737 [2] = assay: Minimum bactericidal concentration (MBC) assay; format: cell-based, Propionibacterium acnes; settings: copper salt alone; P. acnes NCTC 737
Protocol: (§4) (b) Minimum Bactericidal Concentration (MBC) Assay
(§5) Following incubation they were examined visually for bacterial growth.

S. aureus ATCC 29213 [3] = assay: Minimum inhibitory concentration (MIC) assay; format: cell-based, Staphylococcus aureus; settings: copper salt alone; S. aureus ATCC 29213
Description: as §1, §2, §3

S. aureus ATCC 29213 [4] = assay: Minimum bactericidal concentration (MBC) assay; format: cell-based, Staphylococcus aureus; settings: copper salt alone; S. aureus ATCC 29213
Protocol: as §4, §5

P. acnes NCTC 737 [5] = assay: Disc diffusion assay (DDA), also supplemented; settings: for DDA + lipid / DDA + salt & lipid / DDA + salt: copper salt alone, 200 μg per disc (silicate 62 μg); for DDA + lipid: 1% (v/v) Tween 80; for DDA + salt & lipid: salt and 1% (v/v) Tween 80; for DDA + salt: sodium chloride (100 mM);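 on all read-outs here: paper disc carrying compound placed on inoculated Wilkins-Chalgren Anaerobe agar pH 6.0, with lipid or NaCl supplement where listed, anaerobic 37 °C for 72 h, inhibition zone diameter read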
Protocol: The propionibacteria were cultured and maintained on Wilkins-Chalgren Anaerobe Medium (agar and broth) at pH 6.0; all cultures were incubated anaerobically at 37° C. for 72 hours.
(d) Disc Diffusion Assay (DDA)
A sterile paper disc was impregnated with a sample of the test compound in a suitable solvent and 30 minutes allowed for the solvents to evaporate (where possible). The disc was then placed on an agar plate onto which the test micro-organism had been inoculated. The plate was then incubated under the conditions described above, following which it was examined visually for signs of bacterial growth. […] The diameter of this zone of “inhibition” was measured using a ProtoCOL™ automated zone sizer (Synbiosis, Cambridge, UK).
(f) Supplemented Disc Diffusion Assays
For assays using Propionibacterium spp. strains the supplements used in the examples below were lipid (either Tween™ 80 or triolein, both at 1% v/v) and sodium chloride (100 mM).

S. aureus ATCC 29213 [6] = assay: Disc diffusion assay (DDA), also supplemented; settings: for DDA + lipid / DDA + salt & serum / DDA + salt: copper salt alone, 200 μg per disc (silicate 62 μg); for DDA + lipid: Tween 80 at 1% v/v; for DDA + salt & serum: salt and horse serum (5% v/v); for DDA + salt: sodium chloride (100 mM)
P. acnes NCTC 737 [7] = assay: Synergy disc diffusion assay (SDDA), also supplemented; settings: for SL SDDA with TBHQ / SDDA with TBHQ: copper salt + TBHQ on one disc, 200 μg of each (silicate 62 μg); for SL SDDA with TBHQ / SL SDDA area increase / SL SDDA increase: salt and lipid (1% (v/v) Tween 80); for SDDA with TBHQ / SDDA increase / SDDA area increase: unsupplemented; for SDDA increase: copper salt + TBHQ vs larger zone of either compound alone; for SL SDDA area increase / SL SDDA increase / SDDA area increase: copper salt + TBHQ
S. aureus ATCC 29213 [8] = assay: as above; settings: for SS SDDA with TBHQ / SDDA with TBHQ: copper salt + TBHQ on one disc, 200 μg of each (silicate 62 μg); for SS SDDA with TBHQ / SS SDDA area increase / SS SDDA increase: salt and serum supplements; for SDDA with TBHQ / SDDA increase / SDDA area increase: unsupplemented; for SDDA increase: copper salt + TBHQ vs larger zone of either compound alone; for SS SDDA area increase / SS SDDA increase / SDDA area increase: copper salt + TBHQ
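Wherever SS SDDA area increase is given: disc diffusion on Mueller-Hinton agar at pH 7.2, aerobic incubation at 37 °C lasting 19-20 h, two compounds assessed jointly for combined antimicrobial effect.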
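Wherever SS SDDA increase is given: disc diffusion on Mueller-Hinton agar at pH 7.2, aerobic incubation at 37 °C lasting 19-20 h, two compounds assessed jointly for combined antimicrobial effect.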
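Wherever SS SDDA with TBHQ is given: disc diffusion on Mueller-Hinton agar at pH 7.2, aerobic incubation at 37 °C lasting 19-20 h, two compounds assessed jointly for combined antimicrobial effect.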

Row | SMILES | MIC (P. acnes NCTC 737 [1]) | MBC (P. acnes NCTC 737 [2]) | MIC (S. aureus ATCC 29213 [3]) | MBC (S. aureus ATCC 29213 [4]) | DDA + lipid (P. acnes NCTC 737 [5]) | DDA + salt & lipid (P. acnes NCTC 737 [5]) | DDA + salt (P. acnes NCTC 737 [5]) | DDA + lipid (S. aureus ATCC 29213 [6]) | DDA + salt & serum (S. aureus ATCC 29213 [6]) | DDA + salt (S. aureus ATCC 29213 [6]) | SL SDDA with TBHQ (P. acnes NCTC 737 [7]) | SDDA with TBHQ (P. acnes NCTC 737 [7]) | SDDA increase (P. acnes NCTC 737 [7]) | SL SDDA area increase (P. acnes NCTC 737 [7]) | SL SDDA increase (P. acnes NCTC 737 [7]) | SDDA area increase (P. acnes NCTC 737 [7]) | SS SDDA with TBHQ (S. aureus ATCC 29213 [8]) | SDDA with TBHQ (S. aureus ATCC 29213 [8]) | SDDA increase (S. aureus ATCC 29213 [8]) | SS SDDA area increase (S. aureus ATCC 29213 [8]) | also measured
1 | [Cu][Br] [Copper (I) bromide] | 15.6 µg/mL | 125 µg/mL | >250 µg/mL | >250 µg/mL | 43.92 mm | 43.70 mm | 29.38 mm | 0 mm | 0 mm | 0 mm | 56.01 mm | 54.65 mm | 15.44 mm | 64.26% | 12.31 mm | 94.26% | 46.42 mm | 55.37 mm | 14.95 mm | 12.94% | MIC/MBC ratio (P. acnes NCTC 737 [1]): 0.125; SS SDDA increase (S. aureus ATCC 29213 [8]): 2.74 mm; SDDA area increase (S. aureus ATCC 29213 [8]): 87.65%
2 | [Cl-].[Cu+2].[Cu+2].[OH-].[OH-].[OH-] [Copper (II) oxychloride] | 0.98 µg/mL | 15.6 µg/mL | >250 µg/mL | >250 µg/mL | 51.65 mm | 52.04 mm | 54.47 mm | 0 mm | 0 mm | 0 mm | 54.02 mm | 59.45 mm | 8.24 mm | 7.76% | 1.98 mm | 34.77% | 43.89 mm | 52.63 mm | 12.21 mm | 0.96% | MIC/MBC ratio (P. acnes NCTC 737 [1]): 0.06; DDA (P. acnes NCTC 737 [5]): 51.21 mm; DDA (S. aureus ATCC 29213 [6]): 0 mm; SS SDDA increase (S. aureus ATCC 29213 [8]): 0.21 mm; SDDA area increase (S. aureus ATCC 29213 [8]): 69.54%
3 | [Br][Cu][Br] [Copper (II) bromide] | 7.8 µg/mL | 62.5 µg/mL | >250 µg/mL | >250 µg/mL | 42.37 mm | 49.23 mm | 47.94 mm | 0 mm | 0 mm | 0 mm | 65.39 mm | 66.3 mm | 11.47 mm | 76.46% | 16.17 mm | 46.18% | 44.42 mm | 59.26 mm | 18.84 mm | 3.42% | MIC/MBC ratio (P. acnes NCTC 737 [1]): 0.125; SS SDDA increase (S. aureus ATCC 29213 [8]): 0.74 mm; SDDA area increase (S. aureus ATCC 29213 [8]): 114.95%
4 | CC(=O)Oc1ccccc1C(=O)[O-].CC(=O)Oc1ccccc1C(=O)[O-].CC(=O)Oc1ccccc1C(=O)[O-].CC(=O)Oc1ccccc1C(=O)[O-].[Cu+2].[Cu+2] [Copper (II) aspirinate] | 15.6 µg/mL | 62.5 µg/mL | 125 µg/mL | >250 µg/mL | 36.19 mm | 47.45 mm | 40.21 mm | 0 mm | 0 mm | 0 mm | 58.93 mm | 60.80 mm | 16.48 mm | 54.20% | 11.47 mm | 88.19% | 56.95 mm | 69.05 mm | 28.63 mm | 69.99% | MIC/MBC ratio (S. aureus ATCC 29213 [3]): <0.5; DDA (P. acnes NCTC 737 [5]): 44.32 mm; DDA (S. aureus ATCC 29213 [6]): 0 mm; SS SDDA increase (S. aureus ATCC 29213 [8]): 13.27 mm; SDDA area increase (S. aureus ATCC 29213 [8]): 191.83%
